According to Sander's compilation of Henry's law constants (doi:10.1021/ie980743h):

Key:
[1] = Henry solubility constant Hcp at 293 K (mol/(m3 Pa)); settings: reference: Dohnal and Hovorka (1999)
[2] = Henry solubility constant Hcp at 298.15 K (mol/(m3 Pa)); settings: reference: Dohnal and Hovorka (1999)

Compound | Henry solubility constant Hcp at 293 K [1] | Henry solubility constant Hcp [2]
ClCC(Cl)Cl [1,1,2-trichloroethane] | 0.015 | 
CC(Cl)CCl (centres undefined) [1,2-dichloropropane] | 0.0044 | 
Cc1ccccc1C [1,2-dimethylbenzene] |  | 0.0021
Cc1cccc(C)c1 [1,3-dimethylbenzene] |  | 0.0015
Cc1ccc(C)cc1 [1,4-dimethylbenzene] |  | 0.0015
CCCCCl [1-chlorobutane] | 0.00067 | 
CCC(C)(C)OC [2-methoxy-2-methylbutane] |  | 0.01
c1ccccc1 [benzene] |  | 0.0018
Clc1ccccc1 [chlorobenzene] | 0.0036 | 
BrCBr [dibromomethane] | 0.014 | 
CC(C)OC(C)C [diisopropyl ether] |  | 0.0047
C=Cc1ccccc1 [ethenylbenzene] |  | 0.0034
Cc1ccccc1 [methylbenzene] |  | 0.0016
ClC(Cl)=C(Cl)Cl [tetrachloroethene] | 0.00086 | 
